Test systems include 786-0; A498; ACHN; CCRF-CEM; EKVX; HCC 2998; HL-60; HOP-62; LOX IMVI; NCI-H460; NCI-H522; RXF 393; SF-268; SK-MEL-28; SNB-19; SNB-75; SR.
What all share (experiment): inhibition of tumour cell growth, NCI panel, 48 h

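Exposure lasted 48 hours, with cells grown in 96-well plates and compounds tested at five concentrations. GI50 is the concentration that inhibits growth by half.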 The source made the active and inactive calls. No stated cut-off is given here; in the data, active = GI50 up to about 1.1 µM and inactive = higher.

With `CC(C)c1cccc(C(C)C)c1/N=C(/N)C#N`, the GI50 in the experiment on 786-0 is > 43.6 µM (inactive); in the experiment on A498, > 100 µM (inactive); in the experiment on ACHN, > 100 µM (inactive); with CCRF-CEM it was 30.5 µM (inactive); in the experiment with EKVX, > 100 µM (inactive); in the experiment on HCC 2998, > 100 µM (inactive). The GI50 was 26.7 µM (inactive) in the experiment on HL-60; > 100 µM (inactive) in the experiment on HOP-62; 25.2 µM (inactive) in the experiment on LOX IMVI; > 44.9 µM (inactive) with NCI-H460; 38 µM (inactive) in the experiment with NCI-H522; 53.8 µM (inactive) in the experiment with RXF 393. For the same compound, the GI50 with SF-268 was > 100 µM (inactive); with SK-MEL-28 it was > 100 µM (inactive); in the experiment with SNB-19, > 100 µM (inactive); in the experiment with SNB-75, > 100 µM (inactive); in the experiment with SR, 46.2 µM (inactive).
Turning to `COc1cc2c(c(OC)c1O)-c1ccc(SC)c(=O)cc1C(NC(C)=O)CC2` (stereo not given), the GI50 was 0.0545 µM (active) in the experiment with 786-0; 0.195 µM (active) in the experiment with A498; 0.557 µM (active) in the experiment with ACHN; < 0.01 µM (active) in the experiment on CCRF-CEM; 39.7 µM (inactive) in the experiment with EKVX; 0.0261 µM (active) in the experiment with HCC 2998. The GI50 with HL-60 was < 0.01 µM (active); in the experiment with HOP-62 it was 0.0405 µM (active); in the experiment on LOX IMVI, < 0.01 µM (active); in the experiment on NCI-H460, 0.0341 µM (active); in the experiment on NCI-H522, < 0.01 µM (active); with RXF 393, 0.0171 µM (active). The GI50 with SF-268 is < 0.0107 µM (active); in the experiment on SK-MEL-28 it was < 0.01 µM (active); in the experiment on SNB-19, 0.019 µM (active); in the experiment with SNB-75 it was < 0.01 µM (active); with SR it was 0.0112 µM (active).
For `O=C(CCN1CCC(CCO)CC1)Nc1ccc2c(c1)C(=O)c1ccc(NC(=O)CCN3CCC(CCO)CC3)cc1C2=O`, the GI50 in the experiment on 786-0 is 6.7 µM (inactive); with A498 it was 19.9 µM (inactive); with ACHN, 41.9 µM (inactive); in the experiment with CCRF-CEM, 4.22 µM (inactive); in the experiment with EKVX, 32.5 µM (inactive); in the experiment on HCC 2998, 14.4 µM (inactive). In addition, the GI50 in the experiment on HL-60 is 24.6 µM (inactive); in the experiment with HOP-62 it was 17.3 µM (inactive); in the experiment on LOX IMVI it was 8.39 µM (inactive); with NCI-H460, 3.94 µM (inactive); in the experiment with NCI-H522 it was 11.8 µM (inactive); in the experiment on RXF 393, 30.1 µM (inactive). For the same compound, the GI50 in the experiment with SF-268 is 11.3 µM (inactive); in the experiment with SK-MEL-28, 26.1 µM (inactive); in the experiment on SNB-19 it was 16.9 µM (inactive); in the experiment with SNB-75 it was 20.2 µM (inactive); in the experiment on SR, 7.69 µM (inactive).
Take `O=c1oc(=O)c2oc3ccccc3oc1=2`: the GI50 in the experiment on 786-0, in the experiment with A498, in the experiment on ACHN, in the experiment on CCRF-CEM, with EKVX and in the experiment on HCC 2998 was > 100 µM (inactive) in each case. Besides, the GI50 in the experiment with HL-60, in the experiment with HOP-62, in the experiment with LOX IMVI, in the experiment on NCI-H460, in the experiment on NCI-H522 and in the experiment with RXF 393 was > 100 µM (inactive) throughout. Further, the GI50 in the experiment with SF-268, in the experiment on SK-MEL-28, in the experiment with SNB-19, in the experiment with SNB-75 and in the experiment with SR was > 100 µM (inactive) throughout.
Take `O=C(Nc1cccc(C(F)(F)F)c1)C(=O)C(C(=O)c1ccc2ccccc2c1)C1OC(=O)c2ccccc21` (stereo not given): the GI50 in the experiment on 786-0 was 4.21 µM (inactive); with A498, 9.93 µM (inactive); in the experiment on ACHN it was 12.6 µM (inactive); with CCRF-CEM it was 3.18 µM (inactive); in the experiment with EKVX, 14.5 µM (inactive); in the experiment with HCC 2998, 10.8 µM (inactive). The GI50 in the experiment on HL-60 was 7.69 µM (inactive); with HOP-62, 11.5 µM (inactive); with LOX IMVI, 4.23 µM (inactive); in the experiment on NCI-H460, 5.61 µM (inactive); in the experiment with NCI-H522, 8.26 µM (inactive); with RXF 393, 4.16 µM (inactive). Besides, the GI50 is 5.05 µM (inactive) with SF-268; 6.79 µM (inactive) in the experiment on SK-MEL-28; 6.25 µM (inactive) with SNB-19; 12 µM (inactive) with SNB-75; 3.24 µM (inactive) with SR.
As for `CN1C(=O)N(C)C2(O)c3ccccc3C(=O)C12O` (stereo not given), the GI50 in the experiment on 786-0, with A498, in the experiment with ACHN, with CCRF-CEM, in the experiment on EKVX and with HCC 2998 was > 100 µM (inactive) each time. For the same compound, the GI50 in the experiment on HOP-62, in the experiment with LOX IMVI, in the experiment on NCI-H460, in the experiment on NCI-H522, in the experiment with RXF 393 and with SF-268 was > 100 µM (inactive) throughout. Moreover, the GI50 in the experiment with SK-MEL-28, in the experiment on SNB-19, with SNB-75 and in the experiment with SR was > 100 µM (inactive) each time.
With `C[C@@H]1[C@@H]2[C@@H](C=C3C4CCC5Cc6nc7c(nc6C[C@@]5(C)C4C[C@H](O)[C@]32CO)CC2CCC3C4=C[C@H]5O[C@@]6(OC(C)(CO)C[C@@H]6O)[C@H](C)[C@@]5(O)[C@]4(C)[C@@H](O)CC3[C@]2(C)C7)O[C@]12CCC(C)(C)O2` (stereo not given in full), the GI50 in the experiment on 786-0 is 0.00262 µM (active); in the experiment with A498, 0.00883 µM (active); with ACHN, 0.171 µM (active); in the experiment on CCRF-CEM, 0.0117 µM (active); in the experiment with EKVX it was 0.0766 µM (active); in the experiment with HCC 2998, 0.145 µM (active). In addition, the GI50 with HL-60 was 0.00692 µM (active); in the experiment on HOP-62, 0.00311 µM (active); with NCI-H460, 0.0101 µM (active); with NCI-H522, 0.579 µM (active); in the experiment with RXF 393, 0.00082 µM (active); in the experiment with SF-268 it was 0.0208 µM (active). In addition, the GI50 in the experiment with SK-MEL-28 was 0.0305 µM (active); with SNB-19, 0.111 µM (active); in the experiment on SNB-75, 0.00038 µM (active); in the experiment on SR it was 0.00255 µM (active).
As for `N#CCCn1c(S)nnc1CCC(=O)Nc1ccc(Cl)cc1Cl`, the GI50 in the experiment with 786-0 was > 100 µM (inactive); with A498, > 100 µM (inactive); with ACHN it was > 100 µM (inactive); with CCRF-CEM, 52.6 µM (inactive); in the experiment on HCC 2998 it was > 100 µM (inactive); with HL-60, 94.2 µM (inactive). Moreover, the GI50 with HOP-62 was > 100 µM (inactive); with LOX IMVI, 71.6 µM (inactive); with NCI-H460, > 100 µM (inactive); in the experiment with NCI-H522 it was > 100 µM (inactive); in the experiment on RXF 393, > 100 µM (inactive); in the experiment with SF-268, > 100 µM (inactive). Also, the GI50 with SK-MEL-28 was > 100 µM (inactive); in the experiment on SNB-19, > 100 µM (inactive); with SNB-75 it was > 100 µM (inactive); in the experiment on SR, 21.7 µM (inactive).
With `OCC(O)COc1c(Cl)ccc(Cl)c1Cl` (stereo not given), the GI50 with 786-0, in the experiment with A498, in the experiment on ACHN, in the experiment on CCRF-CEM, in the experiment with EKVX and in the experiment on HCC 2998 was > 100 µM (inactive) each time. Besides, the GI50 in the experiment on HL-60, in the experiment with HOP-62, in the experiment with LOX IMVI, in the experiment with NCI-H460, with NCI-H522 and in the experiment on RXF 393 was > 100 µM (inactive) throughout. The GI50 with SF-268, with SK-MEL-28, in the experiment on SNB-19, in the experiment with SNB-75 and with SR was > 100 µM (inactive) each time.
Take `CCOC(=O)c1sc2c(sc(=O)n2-c2ccccc2)c1O`: the GI50 with 786-0 is > 100 µM (inactive); in the experiment on A498, > 100 µM (inactive); with ACHN, > 100 µM (inactive); in the experiment with CCRF-CEM, 45 µM (inactive); in the experiment on EKVX, > 100 µM (inactive); with HCC 2998, > 100 µM (inactive). For the same compound, the GI50 was > 100 µM (inactive) in the experiment on HL-60; > 100 µM (inactive) in the experiment with HOP-62; 55.7 µM (inactive) with LOX IMVI; > 100 µM (inactive) in the experiment with NCI-H460; > 100 µM (inactive) in the experiment on NCI-H522; > 100 µM (inactive) in the experiment on RXF 393. For the same compound, the GI50 is > 100 µM (inactive) in the experiment on SF-268; > 100 µM (inactive) in the experiment with SK-MEL-28; > 100 µM (inactive) with SNB-19; > 100 µM (inactive) in the experiment on SNB-75; 67.6 µM (inactive) in the experiment with SR.
As to `CNC(=O)OCc1nc(SC2CCCCO2)n(C)c1COC(=O)NC` (stereo not given), the GI50 with 786-0, in the experiment on A498, with CCRF-CEM, in the experiment with EKVX, in the experiment on HCC 2998 and with HL-60 was > 100 µM (inactive) in each case. Also, the GI50 in the experiment on HOP-62, with LOX IMVI, in the experiment with NCI-H460, in the experiment with NCI-H522, with RXF 393 and in the experiment on SF-268 was > 100 µM (inactive) throughout. The GI50 in the experiment on SK-MEL-28, in the experiment on SNB-19, in the experiment with SNB-75 and in the experiment on SR was > 100 µM (inactive) each time.
Consider `OCCCNc1ccnc2cc(Cl)ccc12`, for which the GI50 in the experiment with 786-0, with A498, in the experiment on ACHN, in the experiment on CCRF-CEM, with EKVX and in the experiment with HCC 2998 was > 100 µM (inactive) in each case. In addition, the GI50 with HL-60, in the experiment on HOP-62, in the experiment on LOX IMVI, in the experiment with NCI-H460, with NCI-H522 and with RXF 393 was > 100 µM (inactive) in each case. The GI50 with SF-268, with SK-MEL-28, in the experiment with SNB-19, in the experiment on SNB-75 and in the experiment on SR was > 100 µM (inactive) each time.

(Values after ChEMBL document CHEMBL1201862, “PubChem BioAssay data set” (2004).)
